# Like-named read-outs stand apart in the source and are kept apart here.
# Columns and labels:
# MATE1 [1] = target: T1, MATE1 (Homo sapiens, UniProt Q96FL8); conditions: MATE1 vs OCT2
# [2] = for Maximal concentration of unbound famotidine in plasma ([I], Cmax,u): healthy volunteers n=12, oral famotidine 160 to 200 mg doses
# [3] = system: creatinine (an endogenous substrate of MATE1); conditions: 12h after famotidine (200 mg) alone vs pre-famotidine
# creatinine plasma levels = conditions: with famotidine
# [4] = target: plasma membrane monoamine transporter (PMAT, SLC29A4) (Homo sapiens, UniProt Q7RTT9); conditions: Supplemental Fig. 7
# MATE1 [5] = target: T1, MATE1; conditions: overexpressing cell line; Supplemental Fig. 4
# MATE2 [6] = target: T2, MATE2 (Homo sapiens, UniProt Q86VL8); conditions: overexpressing cell line; Supplemental Fig. 4
# OCT1 [7] = target: T3, OCT1 (Homo sapiens, UniProt O15245); conditions: overexpressing cell line; Supplemental Fig. 4
# OCT2 [8] = target: T4, OCT2 (Homo sapiens, UniProt O15244); conditions: overexpressing cell line; Supplemental Fig. 4
# clinical [9] = conditions: human, plasma and urine, oral, 200 mg
# MATE1 [10] = target: T1, MATE1; experiment: cell-based
# MATE2 [11] = target: T2, MATE2; experiment: cell-based
# OCT1 [12] = target: T3, OCT1; experiment: cell-based
# OCT2 [13] = target: T4, OCT2; experiment: cell-based
# [14] = cited from earlier work
# [15] = cited from earlier work; remark: listed apart in the source
# [16] = Tolerability in the clinical study; conditions: twelve healthy volunteers; famotidine Cmax,u about 1.0 μM
# plasma glucose = experiment: Oral glucose tolerance test; design: AUCglu,0.5, GMR (90%CI), metformin vs baseline / AUCglu,3, GMR (90%CI), metformin vs baseline: unit not given beside the values
# [17] = cited from earlier work; remark: listed apart in the source
# clinical [18] = conditions: human
# [19] = population PK model, twelve healthy volunteers
# [20] = glucose AUC 0 to 0.5h after 75 g glucose, n=12
# [21] = glucose AUC 0 to 3h after 75 g glucose, n=12
# [22] = metformin vs baseline (no drug)
# T1 sequence (Q96FL8 whole entry): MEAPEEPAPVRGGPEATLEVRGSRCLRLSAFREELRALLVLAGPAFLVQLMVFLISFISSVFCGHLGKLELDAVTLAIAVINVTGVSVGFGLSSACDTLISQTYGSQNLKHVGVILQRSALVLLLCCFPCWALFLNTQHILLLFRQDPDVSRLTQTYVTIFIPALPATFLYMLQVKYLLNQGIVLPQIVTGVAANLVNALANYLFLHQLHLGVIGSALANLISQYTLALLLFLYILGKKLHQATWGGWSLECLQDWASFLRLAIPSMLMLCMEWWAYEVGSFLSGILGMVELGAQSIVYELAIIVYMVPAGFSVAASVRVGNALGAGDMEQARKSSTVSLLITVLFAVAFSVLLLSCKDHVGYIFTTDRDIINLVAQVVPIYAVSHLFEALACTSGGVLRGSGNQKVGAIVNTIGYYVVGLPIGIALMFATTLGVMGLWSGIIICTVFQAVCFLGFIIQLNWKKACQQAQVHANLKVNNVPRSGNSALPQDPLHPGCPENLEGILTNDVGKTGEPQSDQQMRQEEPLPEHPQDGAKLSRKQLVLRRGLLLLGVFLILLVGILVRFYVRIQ
# T2 sequence (Q86VL8 whole entry): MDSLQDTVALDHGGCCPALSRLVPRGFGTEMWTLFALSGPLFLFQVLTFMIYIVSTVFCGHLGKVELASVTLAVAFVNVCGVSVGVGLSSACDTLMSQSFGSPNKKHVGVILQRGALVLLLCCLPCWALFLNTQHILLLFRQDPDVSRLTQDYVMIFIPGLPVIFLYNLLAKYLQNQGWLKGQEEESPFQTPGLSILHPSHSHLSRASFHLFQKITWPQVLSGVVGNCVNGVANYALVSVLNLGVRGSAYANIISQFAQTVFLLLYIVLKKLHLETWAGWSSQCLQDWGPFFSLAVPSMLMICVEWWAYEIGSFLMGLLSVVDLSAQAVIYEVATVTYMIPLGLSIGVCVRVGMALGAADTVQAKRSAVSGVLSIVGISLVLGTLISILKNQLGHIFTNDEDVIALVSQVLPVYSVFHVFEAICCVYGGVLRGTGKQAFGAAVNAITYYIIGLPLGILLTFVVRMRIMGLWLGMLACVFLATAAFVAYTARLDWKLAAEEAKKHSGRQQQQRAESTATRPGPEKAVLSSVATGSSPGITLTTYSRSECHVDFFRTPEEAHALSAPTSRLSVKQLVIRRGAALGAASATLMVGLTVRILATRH
# T4 sequence (O15244 whole entry): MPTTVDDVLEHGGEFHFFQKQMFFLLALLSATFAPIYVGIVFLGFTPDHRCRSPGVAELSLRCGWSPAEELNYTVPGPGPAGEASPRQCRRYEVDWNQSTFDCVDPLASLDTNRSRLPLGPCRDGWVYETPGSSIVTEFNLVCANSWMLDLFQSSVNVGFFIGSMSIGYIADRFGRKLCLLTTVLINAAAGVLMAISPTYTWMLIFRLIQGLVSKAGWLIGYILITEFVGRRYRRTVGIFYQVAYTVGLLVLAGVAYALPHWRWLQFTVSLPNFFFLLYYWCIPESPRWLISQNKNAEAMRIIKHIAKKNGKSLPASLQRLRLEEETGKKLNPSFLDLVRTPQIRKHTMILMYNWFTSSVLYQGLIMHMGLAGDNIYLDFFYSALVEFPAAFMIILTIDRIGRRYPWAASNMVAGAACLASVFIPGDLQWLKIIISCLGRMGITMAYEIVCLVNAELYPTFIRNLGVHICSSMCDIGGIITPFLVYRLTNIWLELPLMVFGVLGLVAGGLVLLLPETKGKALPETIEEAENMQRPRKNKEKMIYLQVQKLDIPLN
# T3 sequence (O15245 whole entry): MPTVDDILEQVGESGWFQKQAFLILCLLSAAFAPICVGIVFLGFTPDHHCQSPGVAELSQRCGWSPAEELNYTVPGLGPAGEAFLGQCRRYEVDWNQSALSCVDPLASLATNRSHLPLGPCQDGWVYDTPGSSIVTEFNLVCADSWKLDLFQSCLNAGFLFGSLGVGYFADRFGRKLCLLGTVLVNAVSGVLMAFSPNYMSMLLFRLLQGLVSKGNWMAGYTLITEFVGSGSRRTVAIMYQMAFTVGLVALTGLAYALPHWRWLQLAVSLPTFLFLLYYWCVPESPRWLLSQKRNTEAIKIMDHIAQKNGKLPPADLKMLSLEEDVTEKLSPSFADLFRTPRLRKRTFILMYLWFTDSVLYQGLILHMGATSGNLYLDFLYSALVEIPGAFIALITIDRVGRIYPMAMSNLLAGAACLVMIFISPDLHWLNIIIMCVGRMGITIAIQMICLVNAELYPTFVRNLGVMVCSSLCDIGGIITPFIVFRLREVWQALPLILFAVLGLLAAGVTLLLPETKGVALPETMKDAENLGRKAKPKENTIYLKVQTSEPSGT
# Sequence of plasma membrane monoamine transporter (PMAT, SLC29A4) (Q7RTT9 whole entry): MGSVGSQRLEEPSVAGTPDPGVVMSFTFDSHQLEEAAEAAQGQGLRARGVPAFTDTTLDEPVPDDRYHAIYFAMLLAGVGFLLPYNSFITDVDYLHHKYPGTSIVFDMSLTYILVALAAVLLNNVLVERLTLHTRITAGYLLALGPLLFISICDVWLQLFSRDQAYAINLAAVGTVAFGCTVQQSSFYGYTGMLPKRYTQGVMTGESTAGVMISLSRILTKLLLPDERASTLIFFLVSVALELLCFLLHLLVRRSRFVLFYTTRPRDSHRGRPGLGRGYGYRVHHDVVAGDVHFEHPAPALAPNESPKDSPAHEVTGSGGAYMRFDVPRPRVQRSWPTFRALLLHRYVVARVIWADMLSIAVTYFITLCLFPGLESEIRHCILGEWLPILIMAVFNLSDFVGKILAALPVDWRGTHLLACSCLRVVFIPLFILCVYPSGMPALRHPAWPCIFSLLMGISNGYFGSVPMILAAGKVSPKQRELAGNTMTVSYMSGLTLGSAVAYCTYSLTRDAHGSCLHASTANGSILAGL
compound,measurement,setting,value
"NC(N)=Nc1nc(CSCCC(N)=NS(N)(=O)=O)cs1 [Famotidine, famotidine]",Selectivity of inhibition of metformin transport for MATE1 over OCT2,MATE1 [1],over 200 fold
same,"Maximal concentration of unbound famotidine in plasma ([I], Cmax,u)",[2],1000 nM
same,"Maximal concentration of unbound famotidine in plasma ([I], Cmax,u)",[2]; listed as famotidine,1000 ± 64 nM
same,BSV-CL (between subject variability),"[2]; population PK model, (R.S.E)",6.4% (25%)
same,BSV-F (between subject variability),"[2]; population PK model, (R.S.E)",26% (53%)
same,BSV-Lagtime (between subject variability),"[2]; population PK model, (R.S.E)",77% (99%)
same,"CL/F, population estimate (R.S.E)",[2]; [19],116 (7.2%) L/h
same,"Lag time, population estimate (R.S.E)",[2]; [19],0.27 (32%) h
same,"V/F, population estimate (R.S.E)",[2]; [19],715 (6.0%) L
same,"ka, population estimate (R.S.E)",[2]; [19],1.14 (11%) h^−1
same,Creatinine concentrations in plasma,[3],significantly higher
same,"BSV-Baseline, creatinine model (R.S.E.)",creatinine plasma levels,18 (19%)
same,"BSV-Phase Shift, creatinine model (R.S.E.)",creatinine plasma levels,2.7 (89%)
same,"Creatinine plasma Amplitude 1, typical value (R.S.E.)",creatinine plasma levels; diurnal rhythm model,1.15 (49%) mg/L
same,"Creatinine plasma Phase Shift 1, typical value (R.S.E.)",creatinine plasma levels; diurnal rhythm model,2.37 (2.6%) mg/L
same,"Creatinine plasma Baseline, typical value (R.S.E.)",creatinine plasma levels; twelve healthy volunteers,8.07 (5.5%) mg/L
same,Inhibition of metformin transport by PMAT,[4],potent inhibitor
same,Substrate of MATE1,MATE1 [5],unequivocal substrate
same,Substrate of MATE2,MATE2 [6],unequivocal substrate
same,Substrate of OCT1,OCT1 [7],unequivocal substrate
same,Substrate of OCT2,OCT2 [8],unequivocal substrate
same,CL renal,clinical [9],290 ± 32 mL/min
same,IC50,MATE1 [10],0.25 µM
same,IC50,MATE2 [11],2.5 µM
same,IC50,OCT1 [12],19 µM
same,IC50,OCT2 [13],66 µM
same,Bound to plasma proteins,[14],approximately 20%
same,Eliminated by metabolic route,[15],30–35%
same,Eliminated by renal route,[15],65–70%
same,Tolerability during co-administration with metformin,[16],well tolerated
same,Effect of famotidine alone on glucose AUC,"plasma glucose; OGTT, data not shown",no significant effect
"CN(C)C(=N)N=C(N)N [Metformin, metformin]",Ionized in blood and in urine at physiologic pH,[17],> 99%
same,CL renal,"clinical [18]; plasma and urine, oral",767 ± 70 mL/min
same,AUC(0-inf),"clinical [18]; plasma, oral",14600 ng·h/mL
same,Tmax,"clinical [18]; plasma, po, 1850 mg",2 ± 0.24 h
same,"AUCglu,0.5, mean ± SEM",plasma glucose; [20],55 ± 1.5 mg·h/dL
same,"AUCglu,0.5, median",plasma glucose; [20],55 mg·h/dL
same,"AUCglu,3, mean ± SEM",plasma glucose; [21],356 ± 14 mg·h/dL
same,"AUCglu,3, median",plasma glucose; [21],343 mg·h/dL
same,"AUCglu,0.5, GMR (90%CI), metformin vs baseline",plasma glucose; [22],0.94 (0.90–0.98)
same,"AUCglu,3, GMR (90%CI), metformin vs baseline",plasma glucose; [22],0.99 (0.94–1.04)
same,"AUCglu,0.5, GMR (90%CI), metformin vs baseline","plasma glucose; metformin vs baseline (no drug), listed as metformin",0.94 [0.90–0.98]
